From patent publication US8076485B2, “Methylphenidate derivatives and uses of them” (priority 2005, dated 2011)

What was measured:
[1] = test system: human umbilical vein endothelial cells (HUVECs); assay: HUVEC tube formation assay; format: cell-based; conditions: 18 hours, 5% FCS, 30 μg Cpd II or MP in 1 ml, LY 294002 50 μM
Protocol: Passage 4 (i.e., […]) human umbilical vein endothelial cells (HUVECs), human source lot number 9713 (obtained from ATCC) in 1 ml of endothelial growth medium-2 (EGM-2) (obtained from Cambrex) were mixed with 30 μg of the compound of formula II (Cpd II) in endothelial basal medium-2 (EBM-2) (Cambrex) or 30 μg methylphenidate (MP) in EBM-2. Water (vehicle for the two test compounds) was used as a control, and the PI3 kinase inhibitor, LY 294002 (Sigma), at 50 μM, was included as a positive control. Then, the cells were seeded at 10,000 cells/well into the wells of a plate contained in a tube formation assay kit obtained from BD Biosciences, Rockville, Md. The wells of the plate contained an extracellular matrix protein gel. Fetal calf serum (FCS) (ATCC) was added to a final concentration of 5% to initiate tube formation. Then, the plates were incubated for 18 hours at 37° C. and 5% CO2. Following the incubation, the plates were photographed with a digital camera attached to an inverted microscope (Olympus IMT-2 set at a phase contrast (PC) of 10).
When endothelial cells are cultured on extracellular matrix protein gels in the presence of angiogenic signals, they arrange themselves into structures loosely resembling capillary blood vessels. […]

IL-8 [2] = assay: IL-8 release by LPS-stimulated HUVECs (ELISA); format: cell-based, human; conditions: 15 μg/ml
Protocol: Passage 4 HUVECs, lot number 9713, were put into the wells of a 48-well tissue culture plate at 20,000 cells/well in 500 μl of EGM-2 complete medium (but without serum or ascorbate) supplemented with ITSS (insulin, transferrin and sodium selenite) (obtained from Sigma). Also, passage 4 HUVECs, human source lot number 7016 (obtained from ATCC), were put into the wells of a 48-well tissue culture plate at 20,000 cells/well in 500 μl of EGM-2 complete medium (but without serum or ascorbate) supplemented with ITSS. The following additives were added to the cells: water (vehicle control) and 15 μg/ml of the compound of formula II (Cpd II). After incubation for 1 hour at 37° C. and 5% CO2, LPS was added to give a final concentration of 200 ng/ml, and the cells were incubated overnight at 37° C. and 5% CO2. After this incubation, the supernatants were collected, and the amount of IL-8 in the supernatants determined by ELISA as described in Example 4.

IL-8 [3] = assay: IL-8 release from LPS-stimulated THP-1 monocytes (ELISA); format: cell-based; conditions: THP-1, LPS 200 ng/ml; Cpd II 15 μg/ml, Dex 10 μM
Protocol: THP-1 is a monocyte cell line obtained from American Type Culture Collection (ATCC) (catalog no. TIB-202). […] After 1 hour, lipopolysaccharide (LPS) (obtained from Sigma) was added to the cultures to give a final concentration of 200 ng/ml, and the cells were then incubated for an additional 4 hours or for an additional 24 hours. After the incubation, the cells were centrifuged, and the supernatants were collected. The concentrations of IL-8 and TNFα in the supernatants were determined by ELISA.
The concentrations of IL-8 in the supernatants were determined by ELISA performed as described in Example 4.

[4] = test system: Jurkat T-lymphocyte leukemia cell line; assay: Jurkat cell viability (ETH-D1 / calcein AM); format: cell-based; conditions: Jurkat cells, 72 hours, control 20.85% ± 1.42%
Protocol: The Jurkat T-lymphocyte leukemia cell line was obtained from American Type Culture Collection (ATCC), Rockville, Md. (catalog no. TIB-152). Jurkat cells, at 1×10^5 cells/ml, were cultured at 37° C. and 5% CO2 in IMDM medium (ATCC) with 10% FCS for 72 hours with 7.5 μg/ml or 15 μg/ml of the compound of formula II (Cpd II). Following the incubation, the cells were washed with Hepes buffered saline, split into three equal volumes, and then incubated with 5 μM ethidium bromide dimer-1 (ETH-D1) (obtained from Molecular Probes) and 5 μM calcein AM solution (obtained from Promega) for one hour at 37° C. and 5% CO2 in 96-well culture plates to assay for cell viability. The fluorescence in each well was measured using a plate reader at excitation/emission 485/530 nm and 530/645 nm. Relative percentage of dead to live cells was calculated by dividing ETH-D1 fluorescence by calcein AM fluorescence.

NFκB = assay: Activated NFκB in TNFα- or VEGF-treated HIAECs (TransAM assay); format: cell-based; conditions: Homo sapiens, VEGF 10 ng/ml, Cpd II 15 μg/ml, read-out: Percent Inhibition (NFκB)
Protocol: Passage 8 (human iliac artery endothelial cells (HIAECs) (obtained from ATCC; catalog no. CC-2545) were grown to confluence in 25 cm^2 flasks in EGM-2 medium. Eighteen hours prior to the experiment, the medium was replaced with EGM-2 medium containing 0.1% FCS plus heparin, GA1000 (gentamycin) and bovine pituitary extract (all from Cambrex) to place the cells in a resting state. To perform the experiment the medium was aspirated from the flasks, and the following additives were added to the flasks in fresh medium (total volume of 5 ml/flask): 15 μg/ml of the compound of formula II (Cpd II) or 10 μM LY 294002. The flasks were incubated 2 hours at 37° C., 5% CO2. After this incubation, VEGF or TNFα was added to give a final concentration 10 ng/ml, and the flasks were incubated for an additional 30 minutes. Then, the amount of NFκB was determined using a TransAM™ NFκB p65/NFκB p50 Transcription Factor Assay Kit and a Nuclear Extract Kit from Active Motif North America, Carlsbad, Calif., as described in Example 12.

IL-8 [5] = assay: IL-8 production by CD3/CD28-activated TRiPS cell line (ELISA); format: cell-based, human; conditions: 15 μg/ml; CD3/CD28 Dynabeads, 24 hours
[6] = mice; cited from earlier work

Compound	tube formation (branching and cellular interaction of endothelial cells) [1]	IL-8 (pg/ml) (IL-8 [2]; 7016 HUVECs, LPS 200 ng/ml overnight, LPS only 53.3)	IL-8 release (IL-8 [2]; 7016 HUVECs, LPS 200 ng/ml)	decrease of IL-8 release (IL-8 [2]; 9713 HUVECs, LPS 200 ng/ml) [%]	release of IL-8 from the LPS-stimulated monocytes (IL-8 [3])	Relative Percentage Dead/Live ([4]; 7.5 μg/ml)	Relative Percentage Dead/Live ([4]; 15 μg/ml)	inhibition at 15 µg/mL (NFκB) [%]	IL-8 production by the TRiPS cell line (IL-8 [5])	carcinogenicity [6]
COC(=O)C(c1ccc(-c2ccccc2)cc1)C1CCCCN1 (centres unmarked) [Cpd II]	reduced the amount of branching and cellular interaction	Below detection	complete eliminated IL-8 release	90	significantly inhibited the release of IL-8	16.74% ± 2.15%	40.79% ± 1.81%	70	no effect	–
COC(=O)C(c1ccccc1)C1CCCCN1 (centres unmarked) [methylphenidate]	no observable effect	–	–	–	–	–	–	–	–	some evidence that methylphenidate is carcinogenic in mice
